{
  "source": "patent US20110172305A1",
  "about": "“Endocannabinoids for Enhancing Growth and Development in Infants” (priority 2007, published 2011)",
  "key": {"[1]": {"test": "Body weight of pups raised in small or large (malnourished) litters, daily neonatal injections", "assay_type": "in vivo, mouse (ICR strain)", "experimental": "(§1) Using an environmental manipulation technique, within 24 hours of birth, half of each mouse litter (ICR strain) was cross-fostered to the dam of another litter born on the same day. The mouse pups of every two litters were divided up between the 2 dams such that one dam reared 4 pups (‘small litter’) and the other dam raised 18-20 pups (large litter). Pups raised in the large litter were expected to suffer from malnutrition due to the crowded environment. Half of each litter received daily injections of the endocannabinoid 2-arachidonoyl glycerol (2-AG) or THC, the major psychoactive molecule in the Cannabis sativa (marihuana) plant for the first 5 days of life. The doses used were 1 or 5 mg/kg THC or 0.1, 1 or 5 mg/kg 2-AG. Body weights were recorded daily. The body weight of pups from the small and the large litters were analyzed by two-way analysis-of-variance."}, "[2]": {"test": "Motor activity (ambulation) in an open field at 3 months of age", "assay_type": "in vivo, mouse (ICR strain)", "conditions": "tested at 3 months of age", "experimental": "(§2) At adulthood (3 months of age), mice were subjected to the open field assay for motor activity (ambulation and rearing), to the Porsolt forced swim test for anti-depressant-like effects and to the prepulse-inhibited acoustic startle response (PPI) assay which assesses sensorimotor gating.\nMotor activity in an Open field: Mice were placed in a transparent open field (30×40 cm, divided into 20 squares of equal size), measuring horizontal (ambulatory) and vertical activity, for 6 minutes (min), by manually scoring the number of squares crossed (see (Fride and Mechoulam, 1993).\nThe bottom of the open field was divided into 20 squares of equal size. Activity was assessed as the number of squares crossed."}, "[3]": {"test": "Porsolt forced swim test at adulthood", "assay_type": "in vivo, mouse (ICR strain)", "conditions": "treated in infancy, tested at adulthood; FIG. 3A", "text": "as §2\nPorsolt forced swim test: The forced swimming test was based on previous designs (Harkin et al., 2004; Petit-Demouliere et al., 2005; Treit and Menard, 1998): mice were placed in a 2 liter glass beaker (11 cm diameter) filled with water (24+1° C.) up to […] from the bottom (so that the mouse could not touch the bottom) and 8 cm from the rim (so that the mouse cannot escape). […] Immobility at 9 min was analyzed by a t-test, P<0.05."}, "[4]": {"test": "Food intake ('milkbands') of pups raised in small or large litters", "assay_type": "in vivo, mouse (ICR strain)", "conditions": "THC 1 or 5 mg/kg, daily injections for the first 5 days of life", "experimental": "as §1\nOn each subsequent day, pups were briefly separated from their mothers for the duration of weighing and scoring of the presence of “milkbands” in their stomachs. (As the stomach area in mouse pups is transparent, due to lack of hair and the thinness of the skin, the amount of milk consumed can be observed as a “milkband”)."}, "[5]": {"test": "Growth and survival of newborn Spiny wild mice", "assay_type": "in vivo, Spiny wild mice (acomys cahirinus)", "conditions": "50 mg/kg", "text": "FIG. 9A illustrates the relative state of maturation in terms of the growth curve during the first two postnatal weeks in laboratory (ICR strain) mice, compared to Spiny wild mice (acomys cahirinus) which is born at a more advanced stage of development. […] This is similar to the difference in brain maturation predicted by the model designed by Clancy and colleagues (Clancy et al., 2007), i.e., the day of birth of the spiny mouse being equivalent to postnatal day 8 in the laboratory mouse."}, "[6]": {"test": "Intracerebral versus subcutaneous injection, pup body weight gain", "assay_type": "in vivo, mouse (ICR strain)", "conditions": "day 1 of birth, FIG. 8A-E", "experimental": "Newborn (day 1 of birth) mouse pups (ICR strain) were injected subcutaneously (sc) with SR141716 (SR, 20 or 40 mg/kg), as described previously (Fride, 2004; Fride et al., 2003; Fride et al., 2001). In addition, littermates were injected with SR directly into the brain, at 2 depths (2-3 mm) and at several doses 4.5, 9.0 or 22.5 μg (between 50 and 10-fold lower concentrations than the sc injections)."}, "[7]": {"test": "Prepulse inhibition (PPI) of the acoustic startle response", "assay_type": "in vivo, mouse", "conditions": "treated at birth; FIG. 7", "experimental": "Prepulse Inhibition (PPI) of the startle reflex: In this experimental model a weak stimulus (70-90 db tone) inhibits the subsequent response to a strong stimulus (120 db tone). Reduced prepulse inhibition of the startle reflex (PPI) is taken as an additional index of the positive symptoms of schizophrenia (Josselyn and Vaccarino, 1998; Swerdlow and Geyer, 1998). PPI was assessed as described previously (Varty et al., 2001). In the model employed, mice were placed in a startle chamber (Hamilton and Kinder, Poway, Calif., USA). A high frequency loudspeaker produces a 65 db background noise and the various acoustic stimuli: 77 and 81 db prepulse; 120 db startle, separated by 100 ms. The startle response of the mouse is transduced and stored by a computer. Sixty-five readings are taken at 1 ms intervals, and the average amplitude is taken as the startle response. Each test session lasts for about 20 min and consists of 10 presentations of each of the six trial types (Prepulse, Prepulse+Pulse, Pulse or no stimulus other than background) separated by 15 s. The amount of prepulse inhibition is calculated as %PPI=[1-(startle response for Prepulse+Pulse)/(startle response for Pulse alone)]×100."}},
  "data": [
    {"smiles": "CCCCC/C=C\\C/C=C\\C/C=C\\C/C=C\\CCCC(=O)OC(CO)CO", "note": "[2-AG, 2-arachidonoyl glycerol]", "values": [
      {"measurement": "effect on the growth curve", "setting": "[1]; 0.1 mg/kg (lowest dose), daily injections for the first 5 days of life", "result": "no effect on the growth curve"},
      {"measurement": "body weight gain", "setting": "[1]; 1 mg/kg, daily injections for the first 5 days of life, malnourished (overcrowded) litters, FIG. 1", "result": "significantly enhanced body weight gain"},
      {"measurement": "effect on the growth curve", "setting": "[1]; 5 mg/kg (highest dose), daily injections for the first 5 days of life", "result": "no effect on the growth curve"},
      {"measurement": "body weight at 3 months of age versus control mice from large (malnourished) litter", "setting": "[1]; treated as neonates, large litter, FIG. 2", "result": "still had elevated body weights"},
      {"measurement": "body weight at 3 months of age versus vehicle-treated mice raised in small litters", "setting": "[1]; treated as neonates, overcrowded litter, FIG. 2", "result": "did not differ significantly"},
      {"measurement": "motor activity in open field (number of squares crossed)", "setting": "[2]; 2-AG at birth, FIG. 3B", "result": "did not differ from that of controls"},
      {"measurement": "behavior in the Forced swim test (immobility time)", "setting": "[3]", "result": "displayed anti-depressant-like behavior"}
    ]},
    {"smiles": "CCCCCc1cc(O)c2c(c1)OC(C)(C)[C@@H]1CCC(C)=C[C@@H]21", "note": "[THC, Δ^9-tetrahydrocannabinol]", "values": [
      {"measurement": "effect on the body weight curve", "setting": "[1]; THC 1 or 5 mg/kg, daily injections for the first 5 days of life", "result": "Neither of the doses of THC had an effect"},
      {"measurement": "effect on food intake ('milkbands')", "setting": "[4]", "result": "Neither of the doses of THC had an effect"}
    ]},
    {"smiles": "Cc1c(C(=O)NN2CCCCC2)nn(-c2ccc(Cl)cc2Cl)c1-c1ccc(Cl)cc1", "note": "[Rimonabant]", "values": [
      {"measurement": "growth (body weight)", "setting": "[5]; FIG. 9B, P<0.0001", "result": "highly significant delay in growth"},
      {"measurement": "mortality rate", "setting": "[5]; FIG. 9C, P<0.01 versus controls", "result": 60, "unit": "%"},
      {"measurement": "effect on pup growth", "setting": "[6]; injected directly into the brain, 2-3 mm depth, 4.5, 9.0 or 22.5 μg", "result": "none of the centrally injected regimens had any effect on pup growth"},
      {"measurement": "body weight gain", "setting": "[6]; s.c. 20 or 40 mg/kg", "result": "significantly retarded body weight gain"},
      {"measurement": "motor activity in open field (number of squares crossed)", "setting": "[2]; rimonabant at birth, ICR strain, FIG. 6, P<0.001", "result": "hyperactive"},
      {"measurement": "sensorimotor gating, prepulse inhibition of acoustic startle response (% PPI) versus vehicle control", "setting": "[7]", "result": "significantly lower"}
    ]}
  ]
}
